Marks after values point to notes of the source that are not given here.
Tested on: Loblolly pine (Pinus taeda) pre-cotyledonary somatic embryos
Test: Abscisic acid pulse during development of Loblolly pine somatic embryos
Type: cell-based
Description: Development: Pre-cotyledonary somatic embryos were transferred from maintenance medium into solid development medium BM3 containing 25 mg/L abscisic acid for four weeks to yield treated pre-cotyledonary somatic embryos. The development medium either lacks growth hormones entirely, or has them present only at very low levels. The further inclusion of an adsorbent composition in this medium is advantageous. The adsorbent composition is normally present at a concentration of about 0.1-5 g/L, more generally about 0.25-2.5 g/L. Gelrite was included at a concentration of about 0.25%.
After culturing pre-cotyledonary embryos on solid development medium containing 25 mg/L abscisic acid for 4 weeks, the abscisic acid-treated pre-cotyledonary embryos were transferred on a filter paper support to solid development medium without abscisic acid. The solid development medium without abscisic acid had the same composition as development medium BM3. Development is preferably carried out in complete darkness at a temperature of 22°-25 C until elongated cotyledonary embryos have developed. Development time is typically several weeks, such as 10 to 12 weeks.
Female gametophytes containing zygotic embryos were removed from seeds of genotypes A, B and C, as described in EXAMPLE 1, above. The induction and maintenance stages were as described in EXAMPLE 1.
To test the effect of a pulse of abscisic acid, pre-cotyledonary embryos were transferred to a filter paper support placed on solid development medium BM3 containing abscisic acid. Six different treatments were tested. The concentration of abscisic acid, and the time period during which the pre-cotyledonary embryos were exposed to the abscisic acid during each treatment, are shown in Table 3.
As a control, pre-cotyledonary embryos were maintained in development medium BM3 containing 25 mg/L abscisic acid for twelve weeks. After twelve weeks, both control and experimental embryos were taken through the standard post-development treatments as described in EXAMPLE 1. Germination was assessed after twelve weeks on germination media in the light at room temperature.

CC1=CC(=O)CC(C)(C)[C@@]1(O)/C=C/C(C)=C\C(=O)O [Abscisic Acid, abscisic acid]
Mean Dry Weight (All genotypes combined, Control: 25 mg/L abscisic acid weeks 1-12): 0.37 mg/emb
Mean Dry Weight (All genotypes combined, Treatment 1: 25 mg/L weeks 1-3, 0 weeks 4-12): 0.49* mg/emb
Mean Dry Weight (All genotypes combined, Treatment 2: 25 mg/L weeks 1-5, 0 weeks 6-12): 0.47* mg/emb
Mean Dry Weight (All genotypes combined, Treatment 3: 25 mg/L weeks 1-7, 0 weeks 8-12): 0.47* mg/emb
Mean Dry Weight (All genotypes combined, Treatment 4: 25 mg/L weeks 1-9, 0 weeks 10-12): 0.48* mg/emb
Mean Dry Weight (All genotypes combined, Treatment 5: 25 mg/L weeks 1-3, 15 weeks 4-5, 10 weeks 6-7, 5 weeks 8-9, 0 weeks 10-12): 0.50* mg/emb
Mean Dry Weight (All genotypes combined, Treatment 6: 25 mg/L weeks 1-5, 15 weeks 6-7, 10 weeks 8-9, 0 weeks 10-12): 0.48* mg/emb
Embryo morphology at the end of development (both control (continuous abscisic acid) and experimental (pulse) embryos): good morphological form, good cotyledon development, and normal color
Mean Dry Weight (genotype A, Control: 25 mg/L abscisic acid weeks 1-12): 0.27 mg/emb
Mean Dry Weight (genotype A, Treatment 1: 25 mg/L weeks 1-3, 0 weeks 4-12): 0.38* mg/emb
Mean Dry Weight (genotype A, Treatment 2: 25 mg/L weeks 1-5, 0 weeks 6-12): 0.36* mg/emb
Mean Dry Weight (genotype A, Treatment 3: 25 mg/L weeks 1-7, 0 weeks 8-12): 0.34 mg/emb
Mean Dry Weight (genotype A, Treatment 4: 25 mg/L weeks 1-9, 0 weeks 10-12): 0.32 mg/emb
Mean Dry Weight (genotype A, Treatment 5: 25 mg/L weeks 1-3, 15 weeks 4-5, 10 weeks 6-7, 5 weeks 8-9, 0 weeks 10-12): 0.36* mg/emb
Mean Dry Weight (genotype A, Treatment 6: 25 mg/L weeks 1-5, 15 weeks 6-7, 10 weeks 8-9, 0 weeks 10-12): 0.33 mg/emb
Mean Dry Weight (genotype B, Control: 25 mg/L abscisic acid weeks 1-12): 0.31 mg/emb
Mean Dry Weight (genotype B, Treatment 1: 25 mg/L weeks 1-3, 0 weeks 4-12): 0.32 mg/emb
Mean Dry Weight (genotype B, Treatment 2: 25 mg/L weeks 1-5, 0 weeks 6-12): 0.31 mg/emb
Mean Dry Weight (genotype B, Treatment 3: 25 mg/L weeks 1-7, 0 weeks 8-12): 0.37 mg/emb
Mean Dry Weight (genotype B, Treatment 4: 25 mg/L weeks 1-9, 0 weeks 10-12): 0.37 mg/emb
Mean Dry Weight (genotype B, Treatment 5: 25 mg/L weeks 1-3, 15 weeks 4-5, 10 weeks 6-7, 5 weeks 8-9, 0 weeks 10-12): 0.36 mg/emb
Mean Dry Weight (genotype B, Treatment 6: 25 mg/L weeks 1-5, 15 weeks 6-7, 10 weeks 8-9, 0 weeks 10-12): 0.36 mg/emb
Mean Dry Weight (genotype C, Control: 25 mg/L abscisic acid weeks 1-12): 0.55 mg/emb
Mean Dry Weight (genotype C, Treatment 1: 25 mg/L weeks 1-3, 0 weeks 4-12): 0.79* mg/emb
Mean Dry Weight (genotype C, Treatment 2: 25 mg/L weeks 1-5, 0 weeks 6-12): 0.80* mg/emb
Mean Dry Weight (genotype C, Treatment 3: 25 mg/L weeks 1-7, 0 weeks 8-12): 0.69 mg/emb
Mean Dry Weight (genotype C, Treatment 4: 25 mg/L weeks 1-9, 0 weeks 10-12): 0.76* mg/emb
Mean Dry Weight (genotype C, Treatment 5: 25 mg/L weeks 1-3, 15 weeks 4-5, 10 weeks 6-7, 5 weeks 8-9, 0 weeks 10-12): 0.90* mg/emb
Mean Dry Weight (genotype C, Treatment 6: 25 mg/L weeks 1-5, 15 weeks 6-7, 10 weeks 8-9, 0 weeks 10-12): 0.84* mg/emb
Dry weight of embryos receiving the abscisic acid pulse versus control embryos (pulse treatments versus control with 25 mg/L abscisic acid for twelve weeks): higher dry weight than the control embryos

From patent US20040266002A1, “Use of abscisic acid in somatic embryogenesis of pine trees” (Weyerhaeuser Company, priority 2003, published 2004)
